Measurements reported in patent publication US20140107116A1, “BENZOTHIAZOLE DERIVATIVES FOR THE TREATMENT OF DIABETES” (MERCK SERONO SA, priority 2003, published 2014).

Test system: db/db mice
Experiment: Oral postprandial glycemia in db/db mice (experimental model of type II diabetes)
Type: in vivo
Details: 100 mg/kg p.o., db/db mice fasted 20 h then fed, compared to vehicle group; for decrease in blood glucose level: 4 hrs after administration; for decrease in insulin level: serum insulin (ELISA) 4 hrs after administration
Description: In Vivo Assay: Experimental Model of Type II Diabetes (Oral Postprandial Glycemia in db/db Mice)
The following assay aims at determining the anti-diabetic effect of the test compounds of formula (I) in a model of postprandial glycemia in db/db mice, in vivo.
The assay was performed as follows:
A total of 18 db/db mice (about 8-9 weeks; obtained from IFFACREDO, l'Arbreste, France) were fasted during 20 hours.
3 groups, each consisting of 6 animals were formed: • Group 1: The animals were administered (per os) a dose of […] of vehicle. • Group 2: The animals were administered (per os) a dose of 50 mg/kg of the test compound according to formula (I). • Group 3: The animals were administered (per os) a dose of 100 mg/kg of the test compound according to formula (I).
After oral administration of the compounds of formula (I) solubilized or suspended in CarboxyMethylCellulose (0.5%), Tween 20 (0.25%) and water as vehicle, the animals had access to commercial food (D04, UAR, Villemoisson/Orge, France) ad libitum. The diabetic state of the mice was verified by determining the blood glucose level before drug administration. Blood glucose and serum insulin levels were then determined 4 hrs after drug administration.
The determination of the blood glucose level was performed using a glucometer (Precision Q.I.D., Medisense, Abbot, ref. 212.62.31).
The determination of the Insulin level was performed using an ELISA kit (Crystal CHEM, Ref. INSK R020).
Changes in blood glucose and serum insulin of drug treated mice were expressed as a percentage of control (group 1: vehicle treated mice).

SMILES | decrease in blood glucose level [%] | decrease in insulin level [%]
N#CC(c1ccnc(NCCc2cccnc2)n1)c1nc2ccccc2s1 (stereo not shown) [1,3-benzothiazol-2-yl(2-{[2-(3-pyridinyl)ethyl]amino}-4-pyrimidinyl)acetonitrile] | 38 | 64
N#CC(c1ccnc(OCc2ccc(CN3CCOCC3)cc2)n1)c1nc2ccccc2s1 (stereo not shown) [1,3-benzothiazol-2-yl(2-{[4-(morpholin-4-ylmethyl)benzyl]oxy}-pyrimidin-4-yl)acetonitrile] | 22 | 36
